{"source": "patent US20050215620A1", "about": "“Method of treating amyloid beta precursor disorders” (Andrx Labs, LLC, priority 1999, published 2005)", "key": {"Aβ peptides": {"tested_on": "Aβ peptides", "assay": "Extracellular and intracellular [35S]-labeled Aβ peptides in APP-expressing H4, MDCK and CHO cells (pulse-chase, immunoprecipitation, autoradiography)", "format": "cell-based, human; canine; Chinese hamster (cells expressing human APP)", "protocol": "(§1) The three cell lines utilized were: Chinese Hamster Ovary (CHO) cells expressing the 751 amino acid form of APP; Mabin-Darby Canine Kidney (MDCK) cells which overexpress the 695 amino acid form of APP; Human neuroglioma (H4) cells overexpressing the 695 form of human APP. All cells were prepared by the stable introduction of a cDNA coding for human APP. All cell lines were maintained in DMEM containing 10% FBS and antibiotics.\nIn order to characterize the effects of cholesterol depletion, cell cultures of each cell line were cultured on six-well plates for 4 days in DMEM containing 10% FCLPDS, which lipid depleted medium reduced the external source of cholesterol, in the presence of lovastatin acid (LA) or absence of LA.\nFor measurement of APP processing and Aβ peptide formation, medium was removed and the cells were washed once with PBS and then incubated for 2 hours in DMEM containing 1 mCi/ml [^35S] Methionine. After this “pulse” period, the cells were either (1) lysed to measure the total labeled APPi and APPm at time zero, or (2) the cells were incubated for 2 hours in fresh, unlabeled complete medium (“chase”) and then lysed. Then the cell supernatants and lysates were treated with the appropriate antibody to calculate the amounts of APPi, APPm, APPs, and Aβ peptides.\nTo measure Aβ peptides, or to measure APPs, which is the secreted carboxyl-terminal truncated form, cell supernatants were incubated with antibody 6E10, which recognizes the first 15 amino acids of the Aβ peptide that correspond to the COOH-terminal amino acids of APPs . See Buxbaum, J. D., et al. (1994) Proc Natl Acad Sci USA. 91:4489-93, which is incorporated herein by reference.\nThe incubations with antibody 6E10 or antibody 369 were performed at 4° C. for 75 minutes followed by a 45 minute incubation at 4° C. with either agarose-linked anti-mouse IgG for antibody 6E10 or protein A sepharose for antibody 369. The beads were then washed three times for 10 minutes and then run on either a 10-20% Tris-Tricine Gel for APPs and Aβ peptides or an 8% polyacrylamide gel for cell-associated APR The gels were dried and exposed to a Phosphor Imager® screen (STORM 860, Molecular Dynamics) and exposed for a minimum of two days. The protein bands were visualized on a STORM 860 Phosphor Imager® (Molecular Dynamics) and quantitated using ImageQuant® (Molecular Dynamics). […]\nTo determine whether a decrease in cholesterol is associated with a change in the amount of extracellular Aβ peptides, the H4, MDCK, and CHO cells, expressing human APPm were incubated for 4 days in the presence or absence of 0.5 μM LA. […] Relative levels of extracellular Aβ peptides were determined under each condition by quantitative Phosphorlmager autoradiography. […]"}, "APP processing [1]": {"tested_on": "APP processing", "assay": "Extracellular APPs, extracellular Aβ peptides and total APPm in CHO cells", "format": "cell-based, Chinese hamster (cells expressing human APP)", "protocol": "The three cell lines utilized were: Chinese Hamster Ovary (CHO) cells expressing the 751 amino acid form of APP; Mabin-Darby Canine Kidney (MDCK) cells which overexpress the 695 amino acid form of APP; Human neuroglioma (H4) cells overexpressing the 695 form of human APP. All cells were prepared by the stable introduction of a cDNA coding for human APP. All cell lines were maintained in DMEM containing 10% FBS and antibiotics. […] After this “pulse” period, the cells were either (1) lysed to measure the total labeled APPi and APPm at time zero, or (2) the cells were incubated for 2 hours in fresh, unlabeled complete medium (“chase”) and then lysed. Then the cell supernatants and lysates were treated with the appropriate antibody to calculate the amounts of […], and Aβ peptides. To measure cell-associated, full-length APPi and APPm, or to measure carboxyl-terminal fragments of APP, cell lysates were incubated with antibody 369 which recognizes the carboxyl-terminus of APP. See Buxbaum, J. D., et al. (1990) Proc Natl Acad Sci USA 87:6003-6, which is incorporated herein by reference. […] See Buxbaum, J. D., et al. (1994) Proc Natl Acad Sci USA. 91:4489-93, which is incorporated herein by reference. The incubations with antibody 6E10 or antibody 369 were performed at 4° C. for 75 minutes followed by a 45 minute incubation at 4° C. with either agarose-linked anti-mouse IgG for antibody 6E10 or protein A sepharose for antibody 369. […] The protein bands were visualized on a STORM 860 Phosphor Imager® (Molecular Dynamics) and quantitated using ImageQuant® (Molecular Dynamics). […] Specifically, it was determined that treatment of CHO cells with 0.5 μM LA reduced the amount of extracellular APPs by about 30% of the amount calculated for the control and reduced the amount of extracellular Aβ peptides by about 70% of the amount calculated for the control when no LA was present. The amount of extracellular Aβ peptides and the amount of extracellular APPs were normalized to the amount of total APP found in the cell at the end of cell labeling as described above. […]"}, "APP processing [2]": {"tested_on": "APP processing", "assay": "APP processing (APPs formation, APPm levels) in H4 cells", "format": "cell-based, human", "conditions": "0.5 μM LA", "protocol": "as §1\nFor measurement of APP processing and Aβ peptide formation, medium was removed and the cells were washed once with PBS and then incubated for 2 hours in DMEM containing 1 mCi/ml [^35S] Methionine. […]\nThe incubations with antibody 6E10 or antibody 369 were performed at 4° C. for 75 minutes followed by a 45 minute incubation at 4° C. with either agarose-linked anti-mouse IgG for antibody 6E10 or protein A sepharose for antibody 369. […] The protein bands were visualized on a STORM 860 Phosphor Imager® (Molecular Dynamics) and quantitated using ImageQuant® (Molecular Dynamics).\nTo determine whether cholesterol depletion affects other aspects of APP processing, H4 cells were incubated for four days in the presence or absence of 0.5 μM LA, and subjected to metabolic labeling. The levels of [^35S]-labeled APPi and APPm were determined by irnmunoprecipitation from cell lysates with an antibody against the COOH-terminal of APP, followed by quantitative autoradiography. […]"}, "[3]": {"conditions": "CHO cells, 0.5 μM LA, normalized to total APP"}}, "data": [{"compound": "CC[C@H](C)C(=O)O[C@H]1C[C@@H](C)C=C2C=C[C@H](C)[C@H](CC[C@@H](O)C[C@@H](O)CC(=O)O)[C@H]21", "note": "[LA, lovastatin acid]", "values": [{"measurement": "decrease in amounts of extracellular Aβ peptides as compared to the untreated cells", "setting": "Aβ peptides; 0.5 μM LA, 4 days, lipid depleted medium, H4, MDCK and CHO cells", "value": "40-60%"}, {"measurement": "LA concentration sufficient to significantly (p<0.001) decrease the amount of extracellular Aβ peptides", "setting": "Aβ peptides; each cell type, various concentrations of LA", "value": "≥ 0.05", "unit": "µM"}, {"measurement": "levels of intracellular Aβ peptides in cell lysates", "setting": "Aβ peptides; presence of 0.5 μM LA", "value": "No detectable levels"}, {"measurement": "reduction of extracellular Aβ peptide levels (weaker effect)", "setting": "Aβ peptides; printed as 0.5 μM LA", "value": "< 20", "unit": "%"}, {"measurement": "level of total APPm", "setting": "APP processing [1]; CHO cells treated with 0.5 μM LA (control 3.2×10^6)", "value": "3.4×10^6 arbitrary units"}, {"measurement": "reduction of the amount of extracellular APPs relative to control", "setting": "APP processing [1]; [3]", "value": "about 30%"}, {"measurement": "reduction of the amount of extracellular Aβ peptides relative to control", "setting": "APP processing [1]; [3]", "value": "about 70%"}, {"measurement": "effects on maturation, levels of [35S]-labeled APPm (FIG. 6)", "setting": "APP processing [2]", "value": "not sufficient to account for the decrease in Aβ peptide levels"}, {"measurement": "[35S]-labeled APPs formation as compared to control cells (FIG. 5)", "setting": "APP processing [2]; H4 cells, four days", "value": "modest decrease"}]}]}
